{"source": "paper PMC13266999", "about": "“Designing Antibiotics with Inherent Resistance to Efflux as a Strategy to Revive Discovery against Multidrug-Resistant Pathogens” (Journal of Medicinal Chemistry, 2026)", "key": {"[1]": {"tested_on": "NorA overexpressing strain NCTC 13616", "assay": "Reserpine growth (efflux inhibition) assay", "conditions": "for AUC of growth curve: biological replicates 1-3, listed as ML-77-005"}, "[2]": {"tested_on": "S. haemolyticus", "assay": "MIC (microbroth dilution)", "type": "cell-based, Staphylococcus haemolyticus", "conditions": "SH324", "experimental": "(§1) All bacteria were maintained on tryptic soy agar (TSA), except Streptococcus spp., which were maintained on Columbia agar plates containing 5% horse blood. All bacterial assays were carried out in tryptic soy broth (TSB), except for Streptococcus spp. which were grown in cation-adjusted Mueller Hinton broth containing 2.5% lysed horse blood. Bacteria were grown to stationary phase in liquid culture overnight, with shaking at 200 rpm, before being back diluted to the relevant starting concentration for each assay below. MICs were measured by the microbroth dilution method. […] Absorbance at OD600 was read on a CLARIOstar spectrophotometer (BMG Labtech) and the MIC was defined as the minimum concentration of compound where no visible growth was detected. The compounds were prepared as a DMSO stock and equivalent concentrations of DMSO had no effect on bacterial growth. MICs were also performed in the presence of the outer membrane permeator, polymyxin b nonapeptide (PMBN) following the same MIC method but with the following variation. The 2-fold dilution series of compound was prepared as above, then 50 μL of PMBN at a final concentration of 30 μg/mL was added to relevant wells, while 50 μL/well of blank media was added to the remaining wells. Bacteria were then added at 50 μL/well for a starting concentration as above. Thirty μg/mL of PMBN had no effect on bacterial growth. The MICs were read and defined as above. All animal procedures were performed by the contract research organization Pharmacology Discovery Services Taiwan in accordance with the Guide for the Care and Use of Laboratory Animals. The procedures were approved by the Institutional Ethics Committee of Pharmacology Discovery Services Taiwan, Ltd. (approval no. AB127662), in compliance with animal welfare legislation in Taiwan."}, "[3]": {"assay": "Plasma protein binding (RED)", "type": "in vitro ADME", "conditions": "pH 7.4", "experimental": "Plasma protein binding was measured using a Rapid Equilibrium Dialysis (RED) assay. Test compounds and control compounds were added to plasma at 10 μM and dialyzed against phosphate-buffered saline (PBS, pH 7.4) for 4 h at 37 °C. […] The percentage of drug bound to plasma proteins was calculated by comparing the analyte response in the plasma compartment with that in the buffer compartment."}, "[4]": {"target": "T1, WT DNA gyrase (Staphylococcus aureus, UniProt P0A0K8+P20831)", "T1 construct": "purchased Inspiralis Ltd. (Norwich, UK)", "assay": "DNA gyrase supercoiling inhibition assay", "type": "biochemical, S. aureus", "conditions": "WT enzyme; read-out: IC50 (converted)", "experimental": "(§2) Gyrase inhibition was determined through biochemical assay kits from Inspiralis Ltd. (Norwich, UK), according to manufacturer’s instructions, and as described previously. Briefly, 1U of enzyme was incubated with 0.5 μg of relaxed […] DNA in the presence of compound in 1% DMSO for 30 min at 37 °C. A control reaction contained no compound but still contained 1% DMSO. The reactions were stopped through Stop Buffer addition and the DNA separated through addition of chloroform/iso-amyl alcohol (24;1). Samples were run on a 1% agarose gel at 75 V for 2 h, which was then stained with 1 μg/mL ethidium bromide and visualized using a NuGenius gel imager (Syngene). The intensity of the supercoiled DNA band was quantified using Syngene software, and the inhibition of the supercoiling of the DNA by the compounds was calculated."}, "[5]": {"target": "T2, GyrA S84L mutant DNA gyrase (Staphylococcus aureus, UniProt P0A0K8+P20831, S84L)", "T2 construct": "purchased Inspiralis Ltd. (Norwich, UK)", "assay": "DNA gyrase supercoiling inhibition assay", "type": "biochemical, S. aureus", "conditions": "S84L mutant enzyme; read-out: IC50 (converted)", "experimental": "as §2"}, "[6]": {"tested_on": "S. aureus", "assay": "Serial passaging, MIC of adapted strains", "type": "cell-based", "experimental": "MICs were performed on the first and 10th passage."}, "[7]": {"tested_on": "S. aureus NCTC 13616", "assay": "Time-kill assay", "type": "cell-based", "conditions": "4x MIC, 24 hours", "experimental": "Time-kill assays were performed as defined previously."}, "[8]": {"assay": "Kinetic aqueous solubility", "type": "physicochemical", "conditions": "phosphate-buffered saline with 2% DMSO, pH 7.4, aqueous buffer, kinetic from dmso stock", "experimental": "Kinetic aqueous solubility was determined using a standard LC-UV/MS-based assay. Test compounds were prepared from 10 mM DMSO stock solutions and diluted to a nominal concentration of 200 μM in phosphate-buffered saline (PBS, pH 7.4) containing 2% DMSO. Parallel dilutions in DMSO were used as reference standards. Samples were equilibrated at room temperature for 2 h with shaking, then filtered, and the filtrates were analyzed by LC-UV with mass spectrometric confirmation of the analyte peak. Solubility was determined by comparing the UV peak area of the PBS filtrate with those of the DMSO reference standards. The effective range of the assay was 10–200 μM."}, "[9]": {"tested_on": "E. faecalis", "assay": "MIC (microbroth dilution)", "type": "cell-based, Enterococcus faecalis", "experimental": "as §1, with “All bacterial assays were carried out in tryptic soy broth (TSB), except for Streptococcus spp. which were grown in cation-adjusted Mueller Hinton broth containing 2.5% lysed horse blood.” left out, “The compounds were prepared as a DMSO stock and equivalent concentrations of DMSO had no effect on bacterial growth.” left out, “Thirty μg/mL of PMBN had no effect on bacterial growth.” left out"}, "[10]": {"tested_on": "E. faecium", "assay": "MIC (microbroth dilution)", "type": "cell-based, Enterococcus faecium", "experimental": "as §1"}, "[11]": {"tested_on": "S. epidermidis", "assay": "MIC (microbroth dilution)", "type": "cell-based, Staphylococcus epidermidis", "conditions": "SE378", "experimental": "as §1, with “All bacterial assays were carried out in tryptic soy broth (TSB), except for Streptococcus spp. which were grown in cation-adjusted Mueller Hinton broth containing 2.5% lysed horse blood.” left out, “The compounds were prepared as a DMSO stock and equivalent concentrations of DMSO had no effect on bacterial growth.” left out, “Thirty μg/mL of PMBN had no effect on bacterial growth.” left out"}, "[12]": {"tested_on": "K. pneumoniae", "assay": "MIC (microbroth dilution)", "type": "cell-based, Klebsiella pneumoniae", "experimental": "as §1, with “All bacterial assays were carried out in tryptic soy broth (TSB), except for Streptococcus spp. which were grown in cation-adjusted Mueller Hinton broth containing 2.5% lysed horse blood.” left out, “The compounds were prepared as a DMSO stock and equivalent concentrations of DMSO had no effect on bacterial growth.” left out, “Thirty μg/mL of PMBN had no effect on bacterial growth.” left out"}, "[13]": {"tested_on": "Pseudomonas aeruginosa", "assay": "MIC (microbroth dilution)", "type": "cell-based", "experimental": "as §1"}, "[14]": {"tested_on": "Acinetobacter baumannii", "assay": "MIC (microbroth dilution)", "type": "cell-based", "experimental": "as §1"}}, "note": "“And” between values parts separate entries of the source, which are not always exact repeats. Identical values can stand only once. Like-named read-outs stand apart in the source and are kept apart here.", "data": [{"smiles": "O=C(O)c1cn(C2CC2)c2cc(N3CCN(Cc4cccc5ccccc45)CC3)c(F)cc2c1=O", "note": "[Compound 8, 1-Cyclopropyl-6-fluoro-7-(4-(naphthalen-1-ylmethyl)piperazin-1-yl)-4-oxo-1,4-dihydroquinoline-3-carboxylic acid]", "values": [{"measurement": "AUC of growth curve", "setting": "[1]; 0.25 MIC + R (reserpine)", "result": "3.096 and 3.206 and 1.480"}, {"measurement": "AUC of growth curve", "setting": "[1]; 0.25 MIC", "result": "3.117 and 3.088 and 3.115"}, {"measurement": "AUC of growth curve", "setting": "[1]; 0.5 MIC + R (reserpine)", "result": "3.021 and 2.572 and 0.9525"}, {"measurement": "AUC of growth curve", "setting": "[1]; 0.5 MIC", "result": "1.068 and 2.766 and 2.838"}, {"measurement": "efflux liability in reserpine assay", "setting": "[1]; 0.5x MIC with vs without reserpine", "result": "not a substrate of NorA"}, {"measurement": "MIC", "setting": "[2]", "result": 4, "unit": "µg/mL"}, {"measurement": "fraction unbound at 4 h, 10 μM", "setting": "[3]", "result": "< 0.01"}, {"measurement": "IC50", "setting": "[4]", "result": "> 271", "unit": "µM"}, {"measurement": "IC50", "setting": "[5]", "result": 94.9, "unit": "µM"}, {"measurement": "MIC", "setting": "[6]; ATCC 9144 4x (passaged with Compound 8)", "result": 2, "unit": "µg/mL"}, {"measurement": "MIC", "setting": "[6]; ATCC 9144 WT", "result": 0.5, "unit": "µg/mL"}, {"measurement": "MIC", "setting": "[6]; NCTC 13616 4x (passaged with Compound 8)", "result": 4, "unit": "µg/mL"}, {"measurement": "MIC", "setting": "[6]; NCTC 13616 WT", "result": 2, "unit": "µg/mL"}, {"measurement": "time-kill profile", "setting": "[7]", "result": "comparable bacteriostatic profiles"}, {"measurement": "solubility at 2 h", "setting": "[8]", "result": "< 5", "unit": "µM"}, {"measurement": "MIC", "setting": "[9]; EF602", "result": 2, "unit": "µg/mL"}, {"measurement": "MIC", "setting": "[9]; Enterococcus faecalis, NCTC775, NCTC 775, read-out: MIC", "result": 2, "unit": "µg/mL"}, {"measurement": "MIC", "setting": "[9]; Enterococcus faecalis, NCTC12201, NCTC 12201, read-out: MIC", "result": 0.125, "unit": "µg/mL"}, {"measurement": "MIC", "setting": "[9]; Enterococcus faecalis, NCTC12204, NCTC 12204, read-out: MIC", "result": 2, "unit": "µg/mL"}, {"measurement": "MIC", "setting": "[9]; NCTC 775", "result": 2, "unit": "µg/mL"}, {"measurement": "MIC", "setting": "[9]; NCTC 12201", "result": 0.5, "unit": "µg/mL"}, {"measurement": "MIC", "setting": "[10]; EF205", "result": 2, "unit": "µg/mL"}, {"measurement": "MIC", "setting": "[10]; NCTC 12204", "result": 2, "unit": "µg/mL"}, {"measurement": "MIC", "setting": "[11]", "result": "0.25 to 2", "unit": "µg/mL"}, {"measurement": "MIC", "setting": "[12]; Klebsiella pneumoniae, M6, read-out: MIC", "result": "32 to 64", "unit": "µg/mL"}, {"measurement": "MIC", "setting": "[12]; Klebsiella pneumoniae, NCTC13368", "result": "> 128", "unit": "µg/mL"}, {"measurement": "MIC", "setting": "[12]; M6, +PMBN, in µg/mL", "result": 0.5}, {"measurement": "MIC", "setting": "[12]; NCTC 13368, +PMBN, in µg/mL", "result": "1-2"}, {"measurement": "MIC", "setting": "[13]; NCTC 13437", "result": 128, "unit": "µg/mL"}, {"measurement": "MIC", "setting": "[13]; NCTC 13437, +PMBN", "result": 32, "unit": "µg/mL"}, {"measurement": "MIC", "setting": "[13]; PAO1, + PMBN", "result": 0.125, "unit": "µg/mL"}, {"measurement": "MIC", "setting": "[13]; Pseudomonas aeruginosa, PAO1, read-out: MIC", "result": "> 128", "unit": "µg/mL"}, {"measurement": "MIC", "setting": "[14]; ATCC 17978, +PMBN", "result": 0.125, "unit": "µg/mL"}, {"measurement": "MIC", "setting": "[14]; AYE, +PMBN", "result": 32, "unit": "µg/mL"}, {"measurement": "MIC", "setting": "[14]; Acinetobacter baumannii, ATCC17978, ATCC 17978, read-out: MIC", "result": 4, "unit": "µg/mL"}, {"measurement": "MIC", "setting": "[14]; Acinetobacter baumannii, BAA1710, BAA-1710 (AYE), read-out: MIC", "result": "> 128", "unit": "µg/mL"}]}]}
